Data as given in ChEMBL document CHEMBL5126528, “Recent strategies targeting Embryonic Ectoderm Development (EED) for cancer therapy: Allosteric inhibitors, PPI inhibitors, and PROTACs” (Eur J Med Chem, 2022).

What was measured:
DB [1] = assay: Antiproliferative activity against human DB cells assessed as viable cells with replenishment of medium with compound for every three days upto 9 days by trypan blue staining based automated bio-rad TC20 cell counter method; format: functional
[2] = molecular target: T1, von Hippel-Lindau disease tumor suppressor/Polycomb protein EED (Homo sapiens, UniProt O75530+P40337); assay: Protac activity at VHL/EED in human DB cells assessed as degradation of protein measured after 24 to 72 hrs by Bradford assay kit method relative to control; format: cell-based; conditions: time 24-72 hrs
Target sequence in this assay (O75530 2-441 limits assumed): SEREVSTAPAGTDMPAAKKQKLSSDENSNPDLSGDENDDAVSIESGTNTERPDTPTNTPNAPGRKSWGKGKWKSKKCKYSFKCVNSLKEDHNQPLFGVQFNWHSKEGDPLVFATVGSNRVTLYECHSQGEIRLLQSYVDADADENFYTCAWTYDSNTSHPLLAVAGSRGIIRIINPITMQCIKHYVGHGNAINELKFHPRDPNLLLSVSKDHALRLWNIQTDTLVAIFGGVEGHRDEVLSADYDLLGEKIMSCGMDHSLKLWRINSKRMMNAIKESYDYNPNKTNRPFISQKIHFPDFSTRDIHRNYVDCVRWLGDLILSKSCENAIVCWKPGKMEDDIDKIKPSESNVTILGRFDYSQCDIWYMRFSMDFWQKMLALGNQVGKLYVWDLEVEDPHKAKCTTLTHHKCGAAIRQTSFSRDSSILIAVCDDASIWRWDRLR
Target sequence in this assay (P40337 whole entry partner): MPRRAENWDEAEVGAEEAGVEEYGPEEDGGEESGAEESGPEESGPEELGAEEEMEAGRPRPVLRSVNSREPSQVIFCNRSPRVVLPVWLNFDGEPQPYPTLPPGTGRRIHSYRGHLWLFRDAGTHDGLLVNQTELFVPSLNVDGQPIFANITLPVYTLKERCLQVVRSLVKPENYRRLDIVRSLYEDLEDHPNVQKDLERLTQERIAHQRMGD

[3] = molecular target: T2, von Hippel-Lindau disease tumor suppressor/Histone-lysine N-methyltransferase EZH2 (Homo sapiens, UniProt Q15910+P40337); assay: Protac activity at VHL/EZH2 in human DB cells assessed as degradation of protein measured after 24 to 72 hrs by Bradford assay kit method relative to control; format: cell-based; conditions: time 24-72 hrs
Target sequence in this assay (P40337 whole entry, looked up): as the sequence (P40337 whole entry partner) above
Target sequence in this assay (Q15910 whole entry, looked up): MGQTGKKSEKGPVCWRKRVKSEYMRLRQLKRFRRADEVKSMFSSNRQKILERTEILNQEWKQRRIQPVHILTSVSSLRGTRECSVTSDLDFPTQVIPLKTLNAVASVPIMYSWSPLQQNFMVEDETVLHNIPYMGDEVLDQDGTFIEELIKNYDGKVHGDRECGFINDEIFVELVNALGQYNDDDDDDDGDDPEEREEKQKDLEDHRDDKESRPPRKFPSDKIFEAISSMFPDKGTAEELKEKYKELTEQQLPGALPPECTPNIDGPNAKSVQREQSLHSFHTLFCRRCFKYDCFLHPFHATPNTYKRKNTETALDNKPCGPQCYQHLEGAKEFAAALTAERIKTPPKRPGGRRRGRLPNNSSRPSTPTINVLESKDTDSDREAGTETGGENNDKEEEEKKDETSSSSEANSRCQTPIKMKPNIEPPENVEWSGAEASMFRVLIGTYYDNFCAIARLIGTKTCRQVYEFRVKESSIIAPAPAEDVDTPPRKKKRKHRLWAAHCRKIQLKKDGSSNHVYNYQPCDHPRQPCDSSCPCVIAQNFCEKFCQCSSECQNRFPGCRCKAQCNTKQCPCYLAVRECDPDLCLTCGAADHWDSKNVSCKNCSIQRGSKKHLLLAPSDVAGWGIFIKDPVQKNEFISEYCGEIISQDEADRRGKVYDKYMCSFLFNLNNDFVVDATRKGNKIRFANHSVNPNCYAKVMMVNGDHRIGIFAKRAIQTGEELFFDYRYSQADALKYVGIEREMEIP

[4] = molecular target: T3, von Hippel-Lindau disease tumor suppressor/Polycomb protein SUZ12 (Homo sapiens, UniProt Q15022+P40337); assay: Protac activity at VHL/SUZ12 in human HeLa cells assessed as degradation of protein measured after 24 hrs by […] relative to control; format: cell-based
Target sequence in this assay (P40337 whole entry, looked up): as the sequence (P40337 whole entry partner) above
Target sequence in this assay (Q15022 whole entry, looked up): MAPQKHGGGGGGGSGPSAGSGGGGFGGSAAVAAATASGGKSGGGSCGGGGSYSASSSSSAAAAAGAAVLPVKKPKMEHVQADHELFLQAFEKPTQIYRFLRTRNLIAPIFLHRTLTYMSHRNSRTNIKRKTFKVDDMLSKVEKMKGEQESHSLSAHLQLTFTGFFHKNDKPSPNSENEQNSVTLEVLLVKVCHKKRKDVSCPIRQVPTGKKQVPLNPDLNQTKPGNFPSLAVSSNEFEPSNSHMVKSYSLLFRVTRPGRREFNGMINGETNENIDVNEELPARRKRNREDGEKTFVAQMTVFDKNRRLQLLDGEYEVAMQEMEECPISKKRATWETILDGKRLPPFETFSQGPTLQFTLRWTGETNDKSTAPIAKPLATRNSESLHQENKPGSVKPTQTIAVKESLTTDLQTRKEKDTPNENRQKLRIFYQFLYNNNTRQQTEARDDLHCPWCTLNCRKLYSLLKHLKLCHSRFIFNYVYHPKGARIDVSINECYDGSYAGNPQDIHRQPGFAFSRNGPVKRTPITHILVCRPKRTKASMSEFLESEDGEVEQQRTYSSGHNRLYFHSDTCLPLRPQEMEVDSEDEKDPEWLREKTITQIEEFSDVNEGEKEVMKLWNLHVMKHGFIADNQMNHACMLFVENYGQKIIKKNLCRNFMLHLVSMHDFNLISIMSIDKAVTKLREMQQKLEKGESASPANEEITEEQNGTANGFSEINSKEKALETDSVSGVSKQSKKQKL

DB [5] = assay: Antiproliferative activity against human DB cells measured after 9 days by tryphan blue staining; format: functional, cell-based; conditions: 216 h
[6] = molecular target: T3, von Hippel-Lindau disease tumor suppressor/Polycomb protein SUZ12; assay: Protac activity at VHL/SUZ12 in human DB cells assessed as degradation of protein measured after 24 to 72 hrs by Bradford assay kit method; format: cell-based
Target sequence in this assay (Q15022 whole entry): as the sequence (Q15022 whole entry, looked up) above
Target sequence in this assay (P40337 whole entry): as the sequence (P40337 whole entry partner) above

[7] = molecular target: T1, von Hippel-Lindau disease tumor suppressor/Polycomb protein EED; assay: Protac activity at VHL/EED in human DB cells assessed as degradation of protein measured after 24 to 72 hrs by Bradford assay kit method; format: cell-based
Target sequence in this assay (O75530 whole entry): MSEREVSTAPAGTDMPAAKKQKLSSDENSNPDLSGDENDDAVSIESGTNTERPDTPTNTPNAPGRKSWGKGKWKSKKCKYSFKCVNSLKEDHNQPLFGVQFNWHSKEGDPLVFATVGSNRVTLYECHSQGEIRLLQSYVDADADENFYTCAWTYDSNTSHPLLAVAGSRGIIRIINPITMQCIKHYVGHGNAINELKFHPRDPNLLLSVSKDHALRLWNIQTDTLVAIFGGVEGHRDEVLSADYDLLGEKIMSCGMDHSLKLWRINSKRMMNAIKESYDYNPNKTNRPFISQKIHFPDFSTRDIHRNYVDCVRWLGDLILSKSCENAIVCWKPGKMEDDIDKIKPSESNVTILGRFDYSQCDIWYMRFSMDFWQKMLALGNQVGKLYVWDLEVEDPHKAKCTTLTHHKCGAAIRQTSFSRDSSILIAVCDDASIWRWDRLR
Target sequence in this assay (P40337 whole entry): as the sequence (P40337 whole entry partner) above

[8] = molecular target: T3, von Hippel-Lindau disease tumor suppressor/Polycomb protein SUZ12; assay: Protac activity at VHL/SUZ12 in human DB cells assessed as degradation of protein measured after 24 to 72 hrs by Bradford assay kit method relative to control; format: cell-based; conditions: time 24-72 hrs
Target sequence in this assay (P40337 whole entry, looked up): as the sequence (P40337 whole entry partner) above
Target sequence in this assay (Q15022 whole entry, looked up): as the sequence (Q15022 whole entry, looked up) above

[9] = molecular target: T1, von Hippel-Lindau disease tumor suppressor/Polycomb protein EED; assay: Protac activity at VHL/EED in human HeLa cells assessed as degradation of protein measured after 24 hrs by Bradford assay kit method; format: cell-based
Target sequence in this assay (O75530 whole entry): as the sequence (O75530 whole entry) above
Target sequence in this assay (P40337 whole entry): as the sequence (P40337 whole entry partner) above

Pfeiffer [10] = assay: Antiproliferative activity against human Pfeiffer cells measured after 3 days by tryphan blue staining; format: functional, cell-based; conditions: 72 h
[11] = molecular target: T2, von Hippel-Lindau disease tumor suppressor/Histone-lysine N-methyltransferase EZH2; assay: Protac activity at VHL/EZH2 in human DB cells assessed as degradation of protein measured after 24 to 72 hrs by Bradford assay kit method; format: cell-based
Target sequence in this assay (Q15910 whole entry): as the sequence (Q15910 whole entry, looked up) above
Target sequence in this assay (P40337 whole entry): as the sequence (P40337 whole entry partner) above

Pfeiffer [12] = assay: Antiproliferative activity against human Pfeiffer cells assessed as viable cells with replenishment of medium with compound for every three days upto 6 days by trypan blue staining based automated bio-rad TC20 cell counter method; format: functional
[13] = molecular target: Histone-lysine N-methyltransferase EZH2 (Homo sapiens, UniProt Q15910); assay: Inhibition of EZH2 (unknown origin)
[14] = molecular target: T2, von Hippel-Lindau disease tumor suppressor/Histone-lysine N-methyltransferase EZH2; assay: Protac activity at VHL/EZH2 in human HeLa cells assessed as degradation of protein measured after 24 hrs by Bradford assay kit method; format: cell-based
Target sequence in this assay (Q15910 whole entry): as the sequence (Q15910 whole entry, looked up) above
Target sequence in this assay (P40337 whole entry): as the sequence (P40337 whole entry partner) above

Histone-lysine N-methyltransferase EZH2, sequence (Q15910 whole entry): as the sequence (Q15910 whole entry, looked up) above

Cc1ncsc1-c1ccc(CNC(=O)[C@@H]2C[C@@H](O)CN2C(=O)[C@@H](NC(=O)CCCNC(=O)c2ccc(-c3cnc(NCc4ccco4)n4cnnc34)cc2)C(C)(C)C)cc1
EC50 (DB [1]): 3400 nM
Emax [2]: 94%
Emax [3]: 96%
Emax [4]: 22%
EC50 (DB [5]): 3400 nM
DC50 [6]: 590 nM
DC50 [7]: 610 nM
Emax [8]: 82%
DC50 [9]: 790 nM
IC50 (Pfeiffer [10]): 410 nM
DC50 [11]: 670 nM
EC50 (Pfeiffer [12]): 410 nM
IC50 [13]: 300 nM
DC50 [14]: 300 nM
